Measured values from ChEMBL document CHEMBL4038289, “Y-shaped bis-arylethenesulfonic acid esters: Potential potent and membrane permeable protein tyrosine phosphatase 1B inhibitors” (Bioorg Med Chem Lett, 2017).

How the values were obtained:
[1] = molecular target: T1, Tyrosine-protein phosphatase non-receptor type 1 (Homo sapiens, UniProt P18031); experiment: Inhibition of recombinant PTP1B (unknown origin) expressed in Escherichia coli using pNPP as substrate measured after 30 mins
T1 sequence (P18031 whole entry): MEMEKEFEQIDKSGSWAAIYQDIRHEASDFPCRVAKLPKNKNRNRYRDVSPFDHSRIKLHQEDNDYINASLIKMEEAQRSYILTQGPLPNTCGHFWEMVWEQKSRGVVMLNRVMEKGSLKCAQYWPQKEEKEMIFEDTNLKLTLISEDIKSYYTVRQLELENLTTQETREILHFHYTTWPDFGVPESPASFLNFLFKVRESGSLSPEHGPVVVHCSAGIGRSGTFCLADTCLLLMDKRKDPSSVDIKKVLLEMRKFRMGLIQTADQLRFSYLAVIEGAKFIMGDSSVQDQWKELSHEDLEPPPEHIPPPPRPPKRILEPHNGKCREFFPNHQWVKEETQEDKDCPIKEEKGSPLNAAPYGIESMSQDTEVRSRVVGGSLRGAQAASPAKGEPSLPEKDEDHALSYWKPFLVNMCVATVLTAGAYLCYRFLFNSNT

[2] = molecular target: T2, Tyrosine-protein phosphatase non-receptor type 2 (Homo sapiens, UniProt P17706); experiment: Inhibition of recombinant TCPTP (unknown origin) using pNPP as substrate measured after 30 mins
T2 sequence (P17706 whole entry): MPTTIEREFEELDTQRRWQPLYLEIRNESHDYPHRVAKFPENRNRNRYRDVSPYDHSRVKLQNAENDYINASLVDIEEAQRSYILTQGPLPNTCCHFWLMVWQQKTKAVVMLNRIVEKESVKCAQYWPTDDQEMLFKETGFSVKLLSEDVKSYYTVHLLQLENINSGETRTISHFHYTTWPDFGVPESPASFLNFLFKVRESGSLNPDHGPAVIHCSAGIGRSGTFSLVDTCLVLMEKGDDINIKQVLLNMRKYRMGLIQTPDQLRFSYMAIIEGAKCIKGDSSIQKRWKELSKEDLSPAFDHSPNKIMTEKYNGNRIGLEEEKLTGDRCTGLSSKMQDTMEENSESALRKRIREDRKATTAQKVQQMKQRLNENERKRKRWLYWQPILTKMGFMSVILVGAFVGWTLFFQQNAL

[3] = Apparent permeability of compound at 20 uM at pH 7.4 after 16 hrs by PAMPA; assay type: physicochemical
[4] = molecular target: T3, Tyrosine-protein phosphatase non-receptor type 11 (Homo sapiens, UniProt Q06124); experiment: Inhibition of recombinant SHP2 (unknown origin) using pNPP as substrate measured after 30 mins
T3 sequence (Q06124 whole entry): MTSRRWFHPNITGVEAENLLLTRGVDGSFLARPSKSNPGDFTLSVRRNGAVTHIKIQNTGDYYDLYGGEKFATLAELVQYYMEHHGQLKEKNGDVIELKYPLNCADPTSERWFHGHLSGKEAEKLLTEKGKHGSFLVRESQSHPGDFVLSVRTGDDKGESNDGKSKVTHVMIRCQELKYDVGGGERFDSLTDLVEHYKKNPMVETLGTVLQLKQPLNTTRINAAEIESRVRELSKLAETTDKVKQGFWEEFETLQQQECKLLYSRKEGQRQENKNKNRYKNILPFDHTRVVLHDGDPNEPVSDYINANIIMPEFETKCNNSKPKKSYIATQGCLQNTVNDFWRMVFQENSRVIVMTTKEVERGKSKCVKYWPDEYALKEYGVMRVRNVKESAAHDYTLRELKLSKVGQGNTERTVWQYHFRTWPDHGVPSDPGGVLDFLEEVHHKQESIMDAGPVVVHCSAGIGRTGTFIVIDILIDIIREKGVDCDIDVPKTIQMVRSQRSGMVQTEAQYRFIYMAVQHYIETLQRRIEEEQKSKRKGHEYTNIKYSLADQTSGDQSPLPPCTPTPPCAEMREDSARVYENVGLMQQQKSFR

Homo sapiens [5] = species: Homo sapiens; experiment: Selectivity ratio of IC50 for recombinant TCPTP (unknown origin) to IC50 for recombinant PTP1B (unknown origin) expressed in Escherichia coli
Homo sapiens [6] = species: Homo sapiens; experiment: Selectivity ratio of IC50 for recombinant SHP2 (unknown origin) to IC50 for recombinant PTP1B (unknown origin) expressed in Escherichia coli

Row | IC50 [1] [µM] | Structure (SMILES) | also measured
1 | 37.3 | CCOS(=O)(=O)/C=C/c1ccc(OCCCOc2ccc(/C=C/S(=O)(=O)OCC)cc2)cc1 | 
2 | > 100 | CCOS(=O)(=O)/C=C/c1ccc(OCCCCOc2ccc(/C=C/S(=O)(=O)OCC)cc2)cc1 | 
3 | 1.3 | CCOS(=O)(=O)/C=C/c1ccc(OCc2ccc(COc3ccc(/C=C/S(=O)(=O)OCC)cc3)c(C(=O)O)c2)cc1 | 
4 | 1.3 | CCOS(=O)(=O)/C=C/c1ccc(OCc2ccc(COc3ccc(/C=C/S(=O)(=O)OCC)cc3)c(C(=O)Nc3ccc(Oc4ccc(F)cc4)cc3)c2)cc1 | 
5 | 1.4 | CCOS(=O)(=O)/C=C/c1ccc(OCc2ccc(COc3ccc(/C=C/S(=O)(=O)OCC)cc3)c(C(=O)Nc3ccccc3)c2)cc1 | 
6 | 3.4 | CCOS(=O)(=O)/C=C/c1ccc(OCc2ccc(COc3ccc(/C=C/S(=O)(=O)OCC)cc3)c(C(=O)OC)c2)cc1 | 
7 | 8.7 | CCOS(=O)(=O)/C=C/c1ccc(OCOc2ccc(/C=C/S(=O)(=O)OCC)cc2)cc1 | 
8 | 0.4 | CCOS(=O)(=O)/C=C/c1ccc(OCc2ccc(COc3ccc(/C=C/S(=O)(=O)OCC)cc3)c(C(=O)Nc3ccc(Oc4ccc(Cl)cc4)cc3)c2)cc1 | IC50 [2]: 2.97 µM; Papp at 16 h, 20 µM [3]: 9.1 ×10⁻⁶ cm/s; IC50 [4]: 0.94 µM; Ratio IC50 (Homo sapiens [5]): 5 to 9
9 | 1.2 | CCOS(=O)(=O)/C=C/c1ccc(OCc2ccc(COc3ccc(/C=C/S(=O)(=O)OCC)cc3)cc2)cc1 | IC50 [2]: 3.39 µM; IC50 [4]: 4.7 µM
10 | 0.19 | CCOS(=O)(=O)/C=C/c1ccc(OCc2ccc(COc3ccc(/C=C/S(=O)(=O)OCC)cc3)c(C(=O)Nc3ccc(Oc4ccc(CC)cc4)cc3)c2)cc1 | IC50 [2]: 1.32 µM; Papp at 16 h, 20 µM [3]: 8.5 ×10⁻⁶ cm/s; IC50 [4]: 1.1 µM; Ratio IC50 (Homo sapiens [6]): 5 to 6; Ratio IC50 (Homo sapiens [5]): 5 to 9
11 | 0.79 | CCOS(=O)(=O)/C=C/c1ccc(OCc2ccc(COc3ccc(/C=C/S(=O)(=O)OCC)cc3)c(C(=O)Nc3ccc(Oc4ccc5ccccc5c4)cc3)c2)cc1 | 
12 | 0.14 | CCOS(=O)(=O)/C=C/c1ccc(OCc2ccc(COc3ccc(/C=C/S(=O)(=O)OCC)cc3)c(C(=O)Nc3ccc(Oc4ccc(-c5ccccc5)cc4)cc3)c2)cc1 | IC50 [2]: 1.29 µM; Papp at 16 h, 20 µM [3]: 9.7 ×10⁻⁶ cm/s; IC50 [4]: 0.92 µM; Ratio IC50 (Homo sapiens [6]): 5 to 6; Ratio IC50 (Homo sapiens [5]): 5 to 9
13 |  | CC(C)NCC(O)COc1cccc2ccccc12 (stereo not given) [PROPRANOLOL] | Papp at 16 h, 20 µM [3]: 18.7 ×10⁻⁶ cm/s
14 | 0.87 | CCOS(=O)(=O)/C=C/c1ccc(OCc2ccc(COc3ccc(/C=C/S(=O)(=O)OCC)cc3)c(C(=O)Nc3ccc(Oc4ccccc4C(F)(F)F)cc3)c2)cc1 | 
15 | 1.1 | CCOS(=O)(=O)/C=C/c1ccc(OCc2ccc(COc3ccc(/C=C/S(=O)(=O)OCC)cc3)c(C(=O)Nc3ccc(Oc4cccc(-c5ccccc5)c4)cc3)c2)cc1 | 
16 | 1.1 | CCOS(=O)(=O)/C=C/c1ccc(OCc2ccc(COc3ccc(/C=C/S(=O)(=O)OCC)cc3)c(C(=O)Nc3ccc(F)cc3)c2)cc1 | 
17 | 11.8 | CCOS(=O)(=O)/C=C/c1ccc(Oc2ccc(/C=C/S(=O)(=O)OCC)cc2)cc1 | 
18 | 1.3 | CCOS(=O)(=O)/C=C/c1ccc(OCc2ccc(COc3ccc(/C=C/S(=O)(=O)OCC)cc3)c(C(=O)Nc3ccc(C(C)C)cc3)c2)cc1 | 
19 | 0.16 | CCOS(=O)(=O)/C=C/c1ccc(OCc2ccc(COc3ccc(/C=C/S(=O)(=O)OCC)cc3)c(C(=O)Nc3ccc(Oc4ccc(Br)cc4Cl)cc3)c2)cc1 | IC50 [2]: 1.43 µM; Papp at 16 h, 20 µM [3]: 12.6 ×10⁻⁶ cm/s; IC50 [4]: 1.05 µM; Ratio IC50 (Homo sapiens [6]): 5 to 6; Ratio IC50 (Homo sapiens [5]): 5 to 9
20 | 0.86 | CCOS(=O)(=O)/C=C/c1ccc(OCc2ccc(COc3ccc(/C=C/S(=O)(=O)OCC)cc3)c(C(=O)Nc3ccc(Oc4ccccc4)cc3)c2)cc1 | 
21 | 0.85 | CCOS(=O)(=O)/C=C/c1ccc(OCc2ccc(COc3ccc(/C=C/S(=O)(=O)OCC)cc3)c(C(=O)Nc3ccc(Oc4ccccc4F)cc3)c2)cc1 | 
22 | 2.6 | CCOS(=O)(=O)/C=C/c1ccc(OCc2ccc(COc3ccc(/C=C/S(=O)(=O)OCC)cc3)c(C(=O)Nc3ccc(OC)cc3)c2)cc1 | 
23 | 0.91 | CCOS(=O)(=O)/C=C/c1ccc(OCc2ccc(COc3ccc(/C=C/S(=O)(=O)OCC)cc3)c(C(=O)Nc3ccc(Oc4ccc(C(C)(C)C)cc4)cc3)c2)cc1 | 
24 | 0.75 | CCOS(=O)(=O)/C=C/c1ccc(OCc2ccc(COc3ccc(/C=C/S(=O)(=O)OCC)cc3)c(C(=O)Nc3ccc(Oc4ccc(C(C)C)cc4)cc3)c2)cc1 | 
25 | 18.4 | CCOS(=O)(=O)/C=C/c1ccc(OCc2cccc(COc3ccc(/C=C/S(=O)(=O)OCC)cc3)c2)cc1 | 
26 | 0.82 | CCOS(=O)(=O)/C=C/c1ccc(OCc2ccc(COc3ccc(/C=C/S(=O)(=O)OCC)cc3)c(C(=O)Nc3ccc(Oc4ccc(C(F)(F)F)cc4)cc3)c2)cc1 | 
27 | 3 | CCOS(=O)(=O)/C=C/c1ccc(OCCOc2ccc(/C=C/S(=O)(=O)OCC)cc2)cc1 | 
28 | 29.2 | CCOS(=O)(=O)/C=C/c1ccc(OC2CCC(Oc3ccc(/C=C/S(=O)(=O)OCC)cc3)CC2)cc1 (stereo not given) | 
29 | 0.35 | CCOS(=O)(=O)/C=C/c1ccc(OCc2ccc(COc3ccc(/C=C/S(=O)(=O)OCC)cc3)c(C(=O)Nc3ccc(Oc4cccc(C(F)(F)F)c4)cc3)c2)cc1 | IC50 [2]: 1.62 µM; Papp at 16 h, 20 µM [3]: 6.9 ×10⁻⁶ cm/s; IC50 [4]: 1.7 µM; Ratio IC50 (Homo sapiens [6]): 5 to 6; Ratio IC50 (Homo sapiens [5]): 5 to 9
